Activity coefficient data for 43 molecules are collected here from the NIST ThermoML archive (doi:10.1021/je060033f).

Numbers after ± are expanded uncertainties.

The nature of the data set: activity coefficient (dimensionless); of the first substance listed, at infinite dilution; xn = mol fraction of the nth substance listed. As to conditions: 323.15 K; 101 kPa; Liquid; Chromatography; x1 = 0.
Take `c1ccsc1` [thiophene] + CCCCCCCCCCCC[n+]1ccn(CCCB(O)O)c1.[Br-]: the activity coefficient turned out to be 0.9 ± 0.06. The same measure for `CCO` [ethanol] + C=CC[n+]1ccn(CCCCCCCCCC)c1.[Br-]: 0.26 ± 0.03; for `Cc1ccccc1` [toluene] + C[n+]1ccn(CCCB(O)O)c1.[Br-]: 38.8 ± 2.6. Turning to `ClCCl` [dichloromethane] + C=CCn1cc[n+](C)c1.[Br-], the activity coefficient came to 0.33 ± 0.03.

Regarding `ClC(Cl)(Cl)Cl` [tetrachloromethane] + CCCCCCCCCCCC[n+]1ccn(CCCB(O)O)c1.[Br-], the activity coefficient stood at 0.9 ± 0.06. For `Cc1ccccc1C` [1,2-dimethylbenzene] + C=CCn1cc[n+](C)c1.[Br-], the activity coefficient is 8.98 ± 0.61. The same measure for `c1ccsc1` [thiophene] + C=CC[n+]1ccn(CCCCCCCC)c1.[Br-]: 0.93 ± 0.06; for `Cc1cccc(C)c1` [1,3-dimethylbenzene] + CCCCCCCC[n+]1ccn(CCCB(O)O)c1.[Br-]: 3.57 ± 0.24; for `CCCCCCC` [heptane] + CCCCCCCCCCCC[n+]1ccn(CCCB(O)O)c1.[Br-]: 5.36 ± 0.37. The same measure for `CCC(C)=O` [butanone] + CCCCCCCCCC[n+]1ccn(CCCB(O)O)c1.[Br-]: 1.59 ± 0.11. For `CCCCCCCCC` [nonane] + C=CCn1cc[n+](C)c1.[Br-] the value was 65.6 ± 4.5; for `CCCO` [propan-1-ol] + C=CC[n+]1ccn(CCCCCCCC)c1.[Br-], 0.28 ± 0.03. On to `C=CCCCC` [hex-1-ene] + C=CC[n+]1ccn(CCCCCCCC)c1.[Br-], for which the activity coefficient is 5.93 ± 0.4. Take `CCCCCCCC` [octane] + C=CC[n+]1ccn(CCCCCCCCCC)c1.[Br-]: the activity coefficient was determined as 14.3 ± 0.98.

With `Cc1ccccc1` [toluene] + C=CC[n+]1ccn(CCCCCCCC)c1.[Br-], the activity coefficient worked out at 1.92 ± 0.13. As to `CCC(C)=O` [butanone] + C=CC[n+]1ccn(CCCCCCCCCC)c1.[Br-], the activity coefficient amounted to 1.48 ± 0.1. The same measure for `CCCCCCCCC` [nonane] + C=CC[n+]1ccn(CCCCCCCCCC)c1.[Br-]: 16.9 ± 1.2. As to `CCCCCCC` [heptane] + C=CC[n+]1ccn(CCCCCCCCCC)c1.[Br-], the activity coefficient amounted to 11.1 ± 0.76.

`CCCC(C)=O` [pentan-2-one] + CCCCCCCC[n+]1ccn(CCCB(O)O)c1.[Br-]: the activity coefficient is 2.32 ± 0.16. For `ClC(Cl)(Cl)Cl` [tetrachloromethane] + CCCCCCCCCC[n+]1ccn(CCCB(O)O)c1.[Br-] the value was 0.79 ± 0.05; for `C1CCCCC1` [cyclohexane] + CCCCCCCCCC[n+]1ccn(CCCB(O)O)c1.[Br-], 3.89 ± 0.26.

In the case of `ClC(Cl)(Cl)Cl` [tetrachloromethane] + C=CC[n+]1ccn(CCCCCCCCCCCC)c1.[Br-], the activity coefficient worked out at 0.7 ± 0.05. Consider `Cc1cccc(C)c1` [1,3-dimethylbenzene] + CCCCCCCCCCCC[n+]1ccn(CCCB(O)O)c1.[Br-], for which the activity coefficient turned out to be 1.98 ± 0.13. For `CC(C)O` [propan-2-ol] + C=CCn1cc[n+](C)c1.[Br-] the value was 0.69 ± 0.05. For `CCC[N+](=O)[O-]` [1-nitropropane] + CCCCCCCC[n+]1ccn(CCCB(O)O)c1.[Br-] the value was 1.58 ± 0.1.

On to `Cc1cccc(C)c1` [1,3-dimethylbenzene] + C[n+]1ccn(CCCB(O)O)c1.[Br-], for which the activity coefficient was 48.1 ± 3.3. `CCc1ccccc1` [ethylbenzene] + CCCCCCCCCC[n+]1ccn(CCCB(O)O)c1.[Br-]: the activity coefficient is 2.37 ± 0.16. On to `CCCCCCCC` [octane] + C=CCn1cc[n+](C)c1.[Br-], for which the activity coefficient worked out at 63 ± 4.3. For `ClC(Cl)Cl` [trichloromethane] + CCCCCCCC[n+]1ccn(CCCB(O)O)c1.[Br-] the value was 0.23 ± 0.03; for `CCCC(C)=O` [pentan-2-one] + CCCCCCCCCC[n+]1ccn(CCCB(O)O)c1.[Br-], 1.67 ± 0.11. Take `CCC[N+](=O)[O-]` [1-nitropropane] + CCCCCCCCCC[n+]1ccn(CCCB(O)O)c1.[Br-]: the activity coefficient came to 1.19 ± 0.08.

Take `CCC[N+](=O)[O-]` [1-nitropropane] + C=CC[n+]1ccn(CCCCCCCCCC)c1.[Br-]: the activity coefficient was determined as 1.14 ± 0.07. Regarding `CO` [methanol] + CCCCCCCCCCCC[n+]1ccn(CCCB(O)O)c1.[Br-], the activity coefficient stood at 0.04.

Regarding `c1ccccc1` [benzene] + C=CC[n+]1ccn(CCCCCCCCCCCC)c1.[Br-], the activity coefficient stood at 1.08 ± 0.07. The same measure for `Cc1ccccc1` [toluene] + C=CCn1cc[n+](C)c1.[Br-]: 6.19 ± 0.42; for `ClCCl` [dichloromethane] + CCCCCCCC[n+]1ccn(CCCB(O)O)c1.[Br-]: 0.41 ± 0.03; for `CCC(C)=O` [butanone] + C[n+]1ccn(CCCB(O)O)c1.[Br-]: 21.8 ± 1.5.

On to `ClCCl` [dichloromethane] + C[n+]1ccn(CCCB(O)O)c1.[Br-], for which the activity coefficient is 3.2 ± 0.22. The same measure for `CCCC(C)=O` [pentan-2-one] + C=CC[n+]1ccn(CCCCCCCCCCCC)c1.[Br-]: 1.62 ± 0.11; for `CO` [methanol] + C[n+]1ccn(CCCB(O)O)c1.[Br-]: 0.05; for `CCCCCCC` [heptane] + C=CC[n+]1ccn(CCCCCCCCCCCC)c1.[Br-]: 5.32 ± 0.36.

As for `CO` [methanol] + CCCCCCCCCC[n+]1ccn(CCCB(O)O)c1.[Br-], the activity coefficient turned out to be 0.05. Turning to `Cc1ccccc1C` [1,2-dimethylbenzene] + C=CC[n+]1ccn(CCCCCCCCCCCC)c1.[Br-], the activity coefficient amounted to 1.66 ± 0.11.
